Results published in patent US11608483B2, “Inverted culture plate system for cellular co-culture” (University of Maryland, Baltimore, priority 2016, dated 2023).
Read-outs that look alike come from different tables or passages of the source.

Tests used:
[1] = system: CYP2B6 and CYP3A4 expression; assay: CYP2B6 and CYP3A4 mRNA (real-time RT-PCR) and protein (western blot) induction in human primary hepatocytes
Experimental: (§1) The age and sex of each liver donor used are detailed in Table 1.
(§2) Total RNA was isolated from cells using TRIzol reagent (ThermoFisher, Rockford, Ill.) and reverse transcribed using a High Capacity cDNA archive kit (Applied
(§3) Biosystems, Foster, Calif.) according to the manufacturer's instructions. Real-time PCR assay was performed using SYBR Green PCR Mastermix (Qiagen, Germantown, Md.) on an ABI StepOnePlus real-timePCR system (Applied Biosystems). […] Expression values were quantified using the following equation: fold over control=2^ΔΔCt method, where ΔCt represents the differences in cycle threshold numbers between the target gene and glyceraldehyde-3-phosphate dehydrogenase, and ΔΔCt represents the relative change in these differences between control and treatment groups.
(§4) Subsequently, membranes were incubated with primary antibodies against CYP2B6 (1:200; Santa Cruz Biotechnology, Santa Cruz, Calif.), CYP3A4 (1:5000; Sigma-Aldrich), or β-actin (1:50,000, Sigma-Aldrich) at 4° C. overnight. Blots were developed with West Pico chemiluminescent substrates (ThermoFisher) after incubation with horse-radish peroxidase secondary antibodies.

[2] = system: human primary hepatocytes (HPHs); assay: LC-MS/MS measurement of PK11195 metabolism in HPHs; type: in vitro ADME; conditions: for LC-MS/MS peak of metabolite in HPH culture medium: after 1 hour incubation of 10 μM PK11195 with HPHs, versus 0 hour
Experimental: Media (450 μl ) were collected from each well at 0 and 1 hours and frozen immediately at −80° C. Samples were thawed on ice before adding 50 μl of medium to 450 μl of ice-cold methanol/H2O (8:1, v/v). After centrifugation at 16,000g for 30 minutes, 200 μl of supernatant was transferred to a separate tube and dried down before resuspension in 200 μl H2O/ACN (1:1, v/v) with 0.1% formic acid. Authentic standards were prepared to 1 μM in H2O/ACN (1:1, v/v) with 0.1% formic acid. LC-MS/MS analysis was performed on a TSQ Quantum Ultra Triple Stage Quadrupole Mass Spectrometer coupled to an Ultimate 3000 RS Liquid Chromatogram System (Thermo Scientific, Waltham, Mass.). The LC separation was performed on a Waters (Milford, Mass.) BEH C18 column (2.1×50 mm, 1.7 μm) operated at 30° C. Solvents A and B consisted of 0.1% formic acid in H2O and 0.1% formic acid in ACN, respectively. The gradient program was 0.0-0.5 minutes, 50% B; 0.5-2.0 minutes, gradient to 95% B; 2.0-3.5 minutes, 95% B; 3.5-4.0 minutes, gradient to 50% B; and 4.0-5.0 minutes, 50% B. The flow rate was 0.5 ml/min and injection volume was 5 μl. Tandem mass spectrometry was performed in the positive-ion mode and the electrospray ionization source parameters were as follows: spray voltage, 3000; capillary temperature, 325; sheath gas pressure, 40; auxiliary gas pressure, 15; capillary offset, 35; and tube lens offset, 80. […] Data collection and analysis were performed using Xcalibur V 2.1 (Thermo Scientific).

hCAR [3] = target: T1, hCAR (Homo sapiens, UniProt Q14994); assay: Nuclear translocation of EYFP-hCAR in HPHs; type: cell-based; set-up: expressed in transfected cells; conditions: HPHs donor 123; 1 mM PB, 10 μM others; 8 hours
T1 sequence (Q14994 1-348 isoform Q14994-2): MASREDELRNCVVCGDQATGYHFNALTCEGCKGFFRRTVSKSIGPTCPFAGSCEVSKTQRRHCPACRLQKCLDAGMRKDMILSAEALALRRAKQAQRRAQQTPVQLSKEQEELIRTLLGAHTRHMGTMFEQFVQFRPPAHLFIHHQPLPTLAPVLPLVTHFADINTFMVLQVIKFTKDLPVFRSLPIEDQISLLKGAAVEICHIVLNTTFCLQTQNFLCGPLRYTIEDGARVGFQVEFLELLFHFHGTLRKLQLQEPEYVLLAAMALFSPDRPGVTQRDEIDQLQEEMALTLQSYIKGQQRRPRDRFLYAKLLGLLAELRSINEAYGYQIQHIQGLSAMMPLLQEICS
Experimental: After treatment, cells were fixed with 4% paraformaldehyde, stained with 1 μg/ml 4′,6-diamidino-2-phenylindole (Sigma-Aldrich) for 30 minutes, and EYFP-hCAR localization in hepatocytes was visualized on a Nikon Eclipse TI fluorescent microscope (Nikon, Melville, N.Y.). Quantitative distribution of EYFP-hCAR was analyzed using General Analysis in the Nikon Elements AR High Content Analysis software package (version 4.50.00). Nuclear localization was defined and quantified as the percentage of total enhanced yellow fluorescent protein that overlaps with 4′,6-diamidino-2-phenylindole.

hCAR [4] = target: T1, hCAR; assay: CYP2B6 luciferase reporter assay in HepG2-CAR-2B6 stable cells without HPHs; type: cell-based; set-up: expressed in transfected cells; conditions: 24 h; for hCAR activity (CYP2B6 reporter luciferase activity): HepG2-CAR-2B6 cells without HPHs
hCAR1+A = target: T2, hCAR1+A (Homo sapiens, UniProt Q14994, INS274A); assay: CAR1+A/CYP2B6-2.2k reporter assay in transfected HepG2 cells; type: cell-based; conditions: HepG2 cells without HPHs, 24 h
T2 construct: expressed in transfected cells; host or cells: HepG2
T2 sequence (Q14994 with tags, fused parts or gaps isoform Q14994-2 INS270A): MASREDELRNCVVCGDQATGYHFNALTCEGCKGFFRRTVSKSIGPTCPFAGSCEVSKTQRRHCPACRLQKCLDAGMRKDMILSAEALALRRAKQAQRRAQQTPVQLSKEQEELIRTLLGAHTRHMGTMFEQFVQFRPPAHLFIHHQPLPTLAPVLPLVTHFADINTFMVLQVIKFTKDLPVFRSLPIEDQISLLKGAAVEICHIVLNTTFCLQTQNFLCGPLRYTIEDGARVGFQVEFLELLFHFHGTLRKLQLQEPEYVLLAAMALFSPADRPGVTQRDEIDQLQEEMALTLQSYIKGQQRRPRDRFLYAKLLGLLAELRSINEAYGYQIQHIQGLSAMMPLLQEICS
T2 sequence (P19793 1-462 partner): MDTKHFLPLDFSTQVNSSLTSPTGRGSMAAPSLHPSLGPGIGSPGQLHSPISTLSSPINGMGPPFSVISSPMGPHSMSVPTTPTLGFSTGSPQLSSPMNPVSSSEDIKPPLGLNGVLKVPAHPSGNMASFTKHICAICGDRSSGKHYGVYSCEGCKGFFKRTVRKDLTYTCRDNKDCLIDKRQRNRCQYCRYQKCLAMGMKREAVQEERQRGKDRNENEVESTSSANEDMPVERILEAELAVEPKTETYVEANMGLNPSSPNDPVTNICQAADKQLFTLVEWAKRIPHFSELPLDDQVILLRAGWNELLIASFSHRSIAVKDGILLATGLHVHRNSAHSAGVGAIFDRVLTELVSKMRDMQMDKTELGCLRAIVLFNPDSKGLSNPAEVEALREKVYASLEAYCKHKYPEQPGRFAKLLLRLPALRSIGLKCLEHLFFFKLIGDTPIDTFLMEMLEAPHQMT

HEK-293 cells [5] = conditions: HEK-293 cultured alone, concentration up to 1 mM, 24 hrs
HEK-293 cells [6] = conditions: HPH/HEK-293 co-culture versus HEK-293 alone, 24 hrs
[7] = Mordente A et al., 2009; cited from earlier work
hCAR [8] = target: T1, hCAR; conditions: 8 μM KET, PK11195 1 and 10 μM, HPH co-culture, 24 h
hCAR/SRC-1 interaction = target: T3, hCAR/SRC-1 interaction (Homo sapiens, UniProt Q14994); assay: Mammalian two-hybrid assay in COS1 cells, CAR/SRC-1; type: cell-based; conditions: 24 h
T3 construct: expressed in transfected cells; host or cells: COS1
T3 sequence (Q14994 1-348 isoform Q14994-2): T1 sequence (Q14994 1-348 isoform Q14994-2)
Experimental: (§5) COS1 cells seeded in 24-well plates were transfected with 110 ng of the reporter gene plasmid pG5luc, 80 ng of expression plasmids encoding the respective VP16AD/hCAR fusions, 40 ng of expression plasmids encoding GAL4-DBD/coregulatory fusions, and 20 ng of reference plasmid pRL-TK, each well using X-tremeGENE 9 DNA Transfection Reagent (Sigma-Aldrich). […] Luciferase activities were measured in cell lysates using the Dual Luciferase Kit (Promega). Data represent the mean±S.D. of three individual transfections.

hCAR/GRIP1 interaction = target: T4, hCAR/GRIP1 interaction (Homo sapiens, UniProt Q14994); assay: Mammalian two-hybrid assay in COS1 cells, CAR/GRIP1; type: cell-based; conditions: 24 h
T4 construct: expressed in transfected cells; host or cells: COS1
T4 sequence (Q14994 1-348 isoform Q14994-2): T1 sequence (Q14994 1-348 isoform Q14994-2)
Experimental: as §5

[9] = system: CYP2B6 and CYP3A4 expression; assay: CYP2B6 and CYP3A4 induction in PXR-KO HepaRG cells; conditions: differentiated PXR-KO HepaRG cells; 10 μM; 24 h mRNA, 72 h protein
Experimental: as §1, §2, §3, §4

[10] = system: CYP2B6 and CYP3A4 expression; assay: CYP2B6 and CYP3A4 induction in wild-type HepaRG cells; type: cell-based; conditions: differentiated wild-type HepaRG cells; 10 μM PK11195; 24 h mRNA, 72 h protein
Experimental: as §1, §2, §3, §4

Clc1ccc(-c2nc3sccn3c2C=NOCc2ccc(Cl)c(Cl)c2)cc1 [CITCO, 6-(4-Chlorophenyl)imidazo[2,1-b][1,3]thiazole-5-carbaldehyde-O-(3,4-dichlorobenzyl)oxime]
induction of CYP2B6 and CYP3A4 at mRNA and protein levels ([1]; HPHs from liver donors 107 and 122, 1 mM PB, 1 μM CITCO, 10 μM RIF, 10 μM PK11195, 24 h mRNA, 72 h protein): robustly induced

O=C(O)c1cc2ccccc2c(-c2ccccc2Cl)n1 [COOH-PK, 1-(2-Chlorophenyl)isoquinoline-3-carboxylic acid]
LC-MS/MS peak of metabolite in HPH culture medium [2]: significantly increased in intensity
nuclear translocation of hCAR (EYFP-hCAR) (hCAR [3]): negligible CAR nuclear accumulation
hCAR activity (CYP2B6 reporter luciferase activity) (hCAR [4]): no effect on CAR activity
induction of CYP2B6 and CYP3A4 at mRNA and protein levels ([1]; HPHs from liver donors 120 and 121, 0.1, 1 and 10 μM, 24 h mRNA, 72 h protein): negligible effects
hCAR activation in the CAR1+A/CYP2B6-2.2k reporter assay (hCAR1+A): negligible CAR activation

O=P1(N(CCCl)CCCl)NCCCO1 (stereo not shown) [CPA, cyclophosphamide]
cytotoxicity (HEK-293 cells [5]): no cytotoxicity
metabolism-dependent cytotoxicity (HEK-293 cells [6]): showed metabolism-dependence in the co-culture only

COc1cccc2c1C(=O)c1c(O)c3c(c(O)c1C2=O)C[C@@](O)(C(=O)CO)C[C@@H]3O[C@H]1C[C@H](N)[C@H](O)[C@H](C)O1 [DOX, doxorubicin]
fraction eliminated from the body unchanged [7]: over 50%

CC(=O)N1CCN(c2ccc(OCC3COC(Cn4ccnc4)(c4ccc(Cl)cc4Cl)O3)cc2)CC1 (stereo not shown) [KET, ketoconazole]
effect of KET co-treatment on conversion of PK11195 from CAR antagonist to CAR activator (hCAR [8]): significantly inhibited the conversion of PK11195
effect of KET co-treatment on repression of CAR activity by PK11195 (hCAR [4]; 8 μM KET, HepG2-CAR-2B6 cells alone): not influenced

CC[C@@H](C)NC(=O)c1cc2ccccc2c(-c2ccccc2Cl)n1 [ND-PK, (R)-N-Desmethyl PK11195]
interaction between hCAR and SRC-1 (hCAR/SRC-1 interaction; 10 μM, COS1 cells): moderately enhanced
effect on PK11195 mediated repression of SRC-1/CAR interaction (hCAR/SRC-1 interaction; ND-PK + PK11195 co-treatment): markedly rescued
interaction between hCAR and GRIP1 (hCAR/GRIP1 interaction; 10 μM, COS1 cells): moderately enhanced
effect on PK11195-repressed binding of GRIP1 to hCAR (hCAR/GRIP1 interaction; ND-PK + PK11195 co-treatment): only minimally affecting
induction of CYP2B6 and CYP3A4 mRNA and protein [9]: significantly induced
LC-MS/MS peak of metabolite in HPH culture medium [2]: significantly increased in intensity
nuclear translocation of hCAR (EYFP-hCAR) (hCAR [3]): robustly increased nuclear translocation
hCAR activity (CYP2B6 reporter luciferase activity) (hCAR [4]): activated hCAR in a concentration-dependent manner
hCAR activation in the CAR1+A/CYP2B6-2.2k reporter assay (hCAR1+A): robustly activates hCAR to a level similar to the positive control

CCC1(c2ccccc2)C(=O)NC(=O)NC1=O [PB, Phenobarbital]
induction of CYP2B6 and CYP3A4 at mRNA and protein levels ([1]; hepatocytes): robustly induced

CCC(C)N(C)C(=O)c1cc2ccccc2c(-c2ccccc2Cl)n1 (stereo not shown) [PK11195, 1-(2-chlorophenyl)-N-methyl-N-(1-methylpropyl)-3-isoquinolinecarboxamide]
induction of CYP2B6 and CYP3A4 mRNA and protein [9]: significantly induced
metabolism of PK11195 by HPHs ([2]; 10 μM PK11195, media at 0 and 1 hour): metabolized by HPHs to COOH-PK and ND-PK
induction of CYP2B6 and CYP3A4 mRNA and protein [10]: induced the expression of CYP2B6 and CYP3A4 mRNA and protein
induction of CYP2B6 and CYP3A4 at mRNA and protein levels [1]: robustly induced
